What all share (assay): NCI tumour cell line growth inhibition, 48 h
The subject of assay [1] is SR leukemia.
Assay [2] concerns SNB-78 CNS.
For assay [3], the system named is LXFL 529 NSCLC.
Assay [4] concerns OVCAR-5 ovarian.
Assay [5] has as its system HS 578T breast.
Assay [6] deals with MDA-N.
Assay [7] deals with PC-3 prostate.
For assay [8], the system named is DU-145 prostate.
Assay [9] concerns BT-549 breast.
The test system of assay [10] is T-47D breast.
In assay [11] the test system is TK-10 renal.
In assay [12] the test system is MDA-MB-231 breast.
Assay [13] has as its system MDA-MB-435.
Assay [14] deals with XF 498 CNS.
Assay [15] deals with DMS 273 small cell lung.
Assay [16] relates to P388 leukemia.
The test system of assay [17] is SN12K1 renal.
The subject of assay [18] is P388/ADR leukemia.

Drawing on PubChem BioAssay (NCI), this text covers TGI for 5 compounds.

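Five compound concentrations were applied to cells in 96-well plates for 48 hours; endpoints were derived by simple linear interpolation of the resulting dose-response curve. At the TGI there is no net growth.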 A value given as a limit tells only on which side of the number the result lay.

Consider `N=S(=O)(c1ccccc1)c1ccccc1`, for which the TGI in assay [1], in assay [2], in assay [3] and in [4] was more than 100 µM each time.
As to `O=C(/C=C/c1ccc2c(c1)OCO2)NCCc1ccco1`, the TGI in assay [5], in assay [6], in assay [7], in [1], in assay [8] and in assay [9] was more than 100 µM each time. Also, the TGI in [10], in [11], in [4], in [12] and in assay [13] was more than 100 µM each time.
For the compound `C[N+](C)(C)CCOC(=O)/C=C/c1cnc[nH]1`, the TGI was more than 500 µM in assay [14]; more than 500 µM in [15]; more than 500 µM in assay [2]; more than 500 µM in assay [16]; more than 500 µM in assay [17]; more than 316 µM in assay [18]. In assay [4], this compound registered a TGI of more than 500 µM.
As for `COc1cccc2c1C(=O)c1c(O)c3c(c(O)c1C2=O)C[C@@](O)(C(=O)CN1CCOCC1)C[C@@H]3OC1CC(N)C(O)C(C)O1` (some centres not stated), the TGI in [14] came to 8.33 µM; in assay [15], 20.5 µM; in [16], 2.29 µM; in assay [17], 30.1 µM; in [18], 71.7 µM; in assay [4] it was 57.6 µM.
With `O=C(O)CN1CCCC(Cc2c[nH]c3ccccc23)C1` (configuration not stated), the TGI in assay [5], in [6], in [7], in assay [8], in [9] and in [11] was more than 100 µM each time. The TGI in assay [4], in assay [12] and in assay [13] was more than 100 µM throughout.
